Test results taken from patent publication US5593989A, “Tetracyclic 1,4-oxazine compounds” (Adir et Compagnie, priority 1994, dated 1997).
Each block holds one compound with its values, some of them ahead of it.

What was measured:
[1] = system: cloned human D3 receptors vs D2 receptors; assay: D3 vs D2 binding selectivity, cloned human receptors
Description: (§1) in vitro: by the technique of binding to human and rat D2 and D3 receptors (expressed independently and in a stable manner in CHO cells);
(§2) The affinity of the compounds for human or rat D3 and D2 receptors (expressed independently and in a stable manner in CHO cells) was determined in membrane preparations using [^125 I]-iodosulpiride as radioligand (Sokoloff et al, op. cit.), raclopride (10 μM) determining the non-specific binding. The results are expressed as IC50. The selectivity is expressed by the ratio of IC50 D2 to IC50 D3.

[2] = system: cloned rat D3 receptors vs D2 receptors; assay: D3 vs D2 binding selectivity, cloned rat receptors
Description: as §1, §2

D3 receptor = assay: Hypothermia induced in rats by 7-OH-DPAT; format: in vivo, male Wistar rats; conditions: for ΔT °C.: means ± sem
Description: in vivo: by the capacity of the molecules to modulate hypothermia induced in rats by the D3 dopaminergic agonist, 7-OH-DPAT, control of the body temperature being dependent upon the post-synaptic D3 receptor (M. J. Millan, op. cit.).
The tests were carried out on male Wistar rats weighing 200-250 g, placed in individual cages with free access to food and water. The products were dissolved in distilled water to which several drops of lactic acid are added. The injections were effected in a volume of 1.0 ml/kg by the subcutaneous route. The doses are expressed in base. The rectal temperature of the rats was recorded using a digital thermal probe (Millan et al., J.P.E.T., 1993, 264, p. 1364-1376). The rats were injected with the compound or vehicle, then put back in their cages for 30 minutes. The rats were then given an injection of 7-OH-DPAT (0.16 mg/kg) and put back in their cages. Thirty minutes later, the rectal temperature was measured and the difference to basal values (ΔT° C.) was determined. The inhibitory dose (95% confidence limit) for reducing the effect of 7-OH-DPAT by 50% was calculated according to Finney's method (Statistical Method in Biological Assays, 2nd ed., Hafner Publishing, New York, 1964).

[3] = Forced-swimming test (Porsolt); format: in vivo; conditions: for Period of immobility: means ± sem
Description: The procedure has been described in detail by Porsolt et al. (1978).
The experiment was carried out over two days, the test taking place on the second day. On the first day, the animal was placed for 15 minutes in a glass cylinder (30 cm×.O slashed.20 cm) filled with water, the temperature of which is maintained at 25° C. On the second day, the day of the test, the product or the solvent was administered to the animal by the subcutaneous route 30 minutes before the beginning of the test, At T0, the animal was placed in a cylinder filled with water for the 5 minutes the test lasted. The total period (expressed in seconds) of immobility of the animal was measured.
The inhibitory dose (95% confidence limit) for reducing immobility time by 50% was calculated according to Finney's method (Statistical Method in Biological Assays, 2nd ed., Hafner Publishing, New York, 1964).

SMILES: CCCN[C@@H]1CCc2c(OC)cccc2[C@@H]1C [AJ 76]
selectivity for D3 receptors compared with D2 receptors, ratio of IC50 D2 to IC50 D3 [1]: 2.2

selectivity for D3 receptors compared with D2 receptors, ratio of IC50 D2 to IC50 D3 [2]: 44
selectivity for D3 receptors compared with D2 receptors, ratio of IC50 D2 to IC50 D3 [1]: 45
SMILES: CCCN1CCO[C@@H]2c3cc4c(cc3CC[C@H]21)CCO4 (relative stereo) [Example 1, trans-3,4,4a,5,6,8,9,11b-octahydrofuro[2,3-b]1,4-oxazino[3,2-h]4-propyl-2H-naphthalene]
inhibitory dose (ID50) for reducing the effect of 7-OH-DPAT by 50% (D3 receptor; 95% confidence limit in brackets, rats): 1.6 (0.7-3.7) mg/kg s.c.
ΔT °C. (D3 receptor; Ex 1 0.16 mg/kg s.c., then 7-OH-DPAT 0.16 mg/kg): -1.8 ± 0.2 °C
ΔT °C. (D3 receptor; Ex 1 0.63 mg/kg s.c., then 7-OH-DPAT 0.16 mg/kg): -1.3 ± 0.2 °C
ΔT °C. (D3 receptor; Ex 1 2.5 mg/kg s.c., then 7-OH-DPAT 0.16 mg/kg, * p < 0.05 versus vehicle/7-OH-DPAT): +0.2 ± 0.2 °C
ΔT °C. (D3 receptor; Ex 1 10.0 mg/kg s.c., then 7-OH-DPAT 0.16 mg/kg, * p < 0.05 versus vehicle/7-OH-DPAT): -0.1 ± 0.2 °C
Period of immobility ([3]; dose 0.63 mg/kg s.c.): 200.8 ± 17.4 s
Period of immobility ([3]; dose 1.25 mg/kg s.c.): 107.1 ± 39.7 s
Period of immobility ([3]; dose 2.5 mg/kg s.c., * p < 0.05): 63.1 ± 12.4 s
Period of immobility ([3]; dose 10.0 mg/kg s.c., * p < 0.05): 28.2 ± 18.1 s
ED50 ([3]; sc, 95% confidence limit in brackets, read-out: inhibitory dose (ID50) for reducing immobility time by 50%): 1.8 mg/kg

SMILES: CCCN(CCC)[C@@H]1CCc2c(OC)cccc2[C@@H]1C [(+)UH 232]
selectivity for D3 receptors compared with D2 receptors, ratio of IC50 D2 to IC50 D3 [1]: 4.8

SMILES: CCCN(CCC)C1CCc2ccc(O)cc2C1 (stereo not shown) [Example 7-OH-DPAT, reference compound]
selectivity for D3 receptors compared with D2 receptors, ratio of IC50 D2 to IC50 D3 [2]: 53
ΔT °C. (D3 receptor; injection 1 vehicle, injection 2 7-OH-DPAT 0.16 mg/kg s.c.): -1.4 ± 0.1 °C
